Experimental data from US10821115B2, “Compounds that inhibit Mcl-1 protein” (priority 2017, dated 2020).
Where two headings read alike, the source gives them in different places.

Legend:
[1] = target: recombinant human Mcl-1 (residues 171-327) / Bim interaction (Homo sapiens (Human), UniProt Q07820); test: biochemical; assay type: binding; conditions: read-out: Mcl-1 HTRF IC50
Description: The inhibition of the Mcl-1/Bim interaction was measured using a time-resolved fluorescence resonance energy transfer (TR-FRET) assay. […] The TR-FRET assay was conducted in a 384-well white OptiPlate™ (PerkinElmer, Waltham, Mass.) in a total volume of 40 μL. The reaction mixture contained 0.1 nM Mcl-1(171-327), 0.05 nM biotin-Bim (51-76), 0.05 nM LANCE® Eu-W1024 Anti-6×His (PerkinElmer), 0.072 nM Streptavidin-Xlent (Cisbio, Bedford, Mass.), and serially diluted test compounds in the binding buffer of 20 mM Hepes, pH 7.5, 150 mM NaCl, 0.016 mM Brij®35, and 1 mM dithiothreitol. Test compounds were pre-incubated with Mcl-1(171-327) and biotin-Bim (51-76) for 60 min before addition of the detection mixture (LANCE® Eu-W1024 Anti-6×His and Streptavidin-Xlent). The reaction plates were further incubated overnight and then were read on an Envision® multimode reader (PerkinElmer). Fluorescence signals were measured at 620 nm (40-nm bandwidth) and 665 nm (7.5-nm bandwidth) with a 60 is delay after excitation at 320 nm (75-nm bandwidth). The signal ratio at 665/620 nm corresponded to the Mcl-1/Bim interaction and was used in all data analyses. The IC50 values of test compounds were determined from duplicate data by analyzing competition curves using a four-parameter sigmoidal model in GraphPad Prism (GraphPad Software, San Diego, Calif.) or in Genedata Screener® (Genedata, Basel, Switzerland).

[2] = tested on: human multiple myeloma cell line, OPM-2; test: Cell viability assay (OPM-2 10 FBS), CellTiter-Glo; assay type: cell-based
Method in brief: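 IC50 values come from 4-parameter logistic fits of luminescence signals reflecting cell viability. Treatment lasted 16 h at 37 °C in complete medium with 10% FBS, starting from 3000 cells/well.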

[3] = TR-FRET, Mcl-1(171-327) / biotin-Bim (51-76)
[4] = Homo sapiens, OPM-2, 16 h, read-out: OPM-2 10% FBS IC50 IP, OPM-2 cells, 10% FBS, 16 h, CellTiter-Glo
[5] = 0.1 nM Mcl-1(171-327), 0.05 nM biotin-Bim (51-76)
[6] = Homo sapiens, OPM-2, 16 h, read-out: OPM-2 10% FBS IC50 IP, OPM-2 cells, 10% FBS, 16 h incubation
[7] = read-out: OPM-2 10% FBS IC50 IP, OPM-2 cells, 10% FBS, 16 h, CellTiter-Glo

Sequence of recombinant human Mcl-1 (residues 171-327) / Bim interaction (Q07820 171-327): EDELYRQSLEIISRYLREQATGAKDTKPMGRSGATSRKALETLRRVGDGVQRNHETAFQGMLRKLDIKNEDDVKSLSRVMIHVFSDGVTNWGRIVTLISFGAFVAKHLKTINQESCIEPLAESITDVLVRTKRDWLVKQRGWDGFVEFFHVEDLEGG

Row | Compound | IC50 [1, 3] [nM] | IC50 [2, 4] [nM] | other results
1 | CO[C@@]1(CC(C)=O)/C=C/C[C@H](C)[C@@H](C)S(=O)(=O)NC(=O)c2ccc3c(c2)N(C[C@@H]2CC[C@H]21)C[C@@]1(CCCc2cc(Cl)ccc21)CO3 [Example 100446, (1S,3′R,6′R,7′S,8′E,11′S,12′R)-6-chloro-7′-methoxy-11′,12′-dimethyl-7′-(2-oxopropyl)-3,4-dihydro-2H,15′H-spiro[naphthalene-1,22′-[20]oxa[13]thia[1,14]diazatetracyclo [14.7.2.0~3,6~.0~19,24~]pentacosa[8,16,18,24]tetraen]-15′-one 13′,13′-dioxide] | 0.126 | 345 | 
2 | CO[C@@]1(c2cnccc2F)/C=C/C[C@H](C)[C@@H](C)S(=O)(=O)NC(=O)c2ccc3c(c2)N(C[C@@H]2CC[C@H]21)C[C@@]1(CCCc2cc(Cl)ccc21)CO3 (single isomer, unassigned) [Example 100538] | 1.47 | 2400 | 
3 | CO[C@@]1(CN2CCCN(C(C)C)CC2)/C=C/C[C@H](C)[C@@H](C)S(=O)(=O)NC(=O)c2ccc3c(c2)N(C[C@@H]2CC[C@H]21)C[C@@]1(CCCc2cc(Cl)ccc21)CO3 [Example 331] |  |  | IC50 [1, 5]: 0.184 nM; IC50 ([2]; read-out: OPM-2 10% FBS IC50 IP, OPM-2 cells, 10% FBS, 16 h incubation): 230 nM
4 | CO[C@@]1(CC(=O)C(C)C)/C=C/C[C@H](C)[C@@H](C)S(=O)(=O)NC(=O)c2ccc3c(c2)N(C[C@@H]2CC[C@H]21)C[C@@]1(CCCc2cc(Cl)ccc21)CO3 [Example 100373, (1S,3′R,6′R,7′S,8′E,11′S,12′R)-6-chloro-7′-methoxy-11′,12′-dimethyl-7′-(3-methyl-2-oxobutyl)-3,4-dihydro-2H,15′H-spiro[naphthalene-1,22′-[20]oxa[13]thia[1,14]diazatetracyclo [14.7.2.0~3,6~.0~19,24~]pentacosa[8,16,18,24]tetraen]-15′-one 13′,13′-dioxide] |  | 736 | IC50 [1]: 0.318 nM
5 | CO[C@]1(CCO)/C=C/C[C@H](C)[C@@H](C)S(=O)(=O)NC(=O)c2ccc3c(c2)N(C[C@@H]2CC[C@H]21)C[C@@]1(CCCc2cc(Cl)ccc21)CO3 [Example 100217, (1S,3′R,6′R,7′R,8′E,11′S,12′R)-6-chloro-7′-(2-hydroxyethyl)-7′-methoxy-11′,12′-dimethyl-3,4-dihydro-2H,15′H-spiro[naphthalene-1,22′-[20]oxa[13]thia[1,14]diazatetracyclo [14.7.2.0~3,6~.0~19,24~]pentacosa[8,16,18,24]tetraen]-15′-one 13′,13′-dioxide] | 0.183 | 130 | 
6 | CO[C@@]1(CN2CCN(c3cccnc3)CC2)/C=C/C[C@H](C)[C@@H](C)S(=O)(=O)NC(=O)c2ccc3c(c2)N(C[C@@H]2CC[C@H]21)C[C@@]1(CCCc2cc(Cl)ccc21)CO3 [Example 253, (1S,3′R,6′R,7′S,8′E,11′S,12′R)-6-chloro-7′-methoxy-11′,12′-dimethyl-7′-((4-(3-pyridinyl)-1-piperazinyl)methyl)-3,4-dihydro-2H,15′H-spiro[naphthalene-1,22′-[20]oxa[13]thia[1,14]diazatetracyclo [14.7.2.0~3,6~.0~19,24~]pentacosa[8,16,18,24]tetraen]-15′-one 13′,13′-dioxide] |  |  | IC50 [1, 5]: 0.804 nM; IC50 [2, 6]: 887 nM
7 | CO[C@H](C)[C@]1(OC)/C=C/C[C@H](C)[C@@H](C)S(=O)(=O)NC(=O)c2ccc3c(c2)N(C[C@@H]2CC[C@H]21)C[C@@]1(CCCc2cc(Cl)ccc21)CO3 [Example 100473, (1S,3′R,6′R,7′S,8′E,11′S,12′R)-6-chloro-7′-methoxy-7′-((1R)-1-methoxyethyl)-11′,12′-dimethyl-3,4-dihydro-2H,15′H-spiro[naphthalene-1,22′-[20]oxa[13]thia[1,14]diazatetracyclo [14.7.2.0~3,6~.0~19,24~]pentacosa[8,16,18,24]tetraen]-15′-one 13′,13′-dioxide] | 0.974 |  | IC50 [2, 7]: 178 nM
8 | C[C@@H]1[C@@H](C)CCC[C@@](O)(CCN2CCCCC2)[C@@H]2CC[C@H]2CN2C[C@@]3(CCCc4cc(Cl)ccc43)COc3ccc(cc32)C(=O)NS1(=O)=O [Example 100091, (1S,3′R,6′R,7′R,11′S,12′R)-6-chloro-7′-hydroxy-11′,12′-dimethyl-7′-(2-(1-piperidinyl)ethyl)-3,4-dihydro-2H,15′H-spiro[naphthalene-1,22′-[20]oxa[13]thia[1,14]diazatetracyclo [14.7.2.0~3,6~.0~19,24~]pentacosa[16,18,24]trien]-15′-one 13′,13′-dioxide] | 1.2 | 1350 | 
9 | C[C@@H]1[C@@H](C)C/C=C/[C@@](O)(c2ccc(F)cn2)[C@@H]2CC[C@H]2CN2C[C@@]3(CCCc4cc(Cl)ccc43)COc3ccc(cc32)C(=O)NS1(=O)=O (single isomer, unassigned) [Example 100402] | 0.098 | 133 | 
10 | C[C@@H]1[C@@H](C)C/C=C/[C@@](O)(c2ccncc2)[C@@H]2CC[C@H]2CN2C[C@@]3(CCCc4cc(Cl)ccc43)COc3ccc(cc32)C(=O)NS1(=O)=O (single isomer, unassigned) [Example 100392] | 0.112 | 129 | 
11 | C[C@@H]1[C@@H](C)CCC[C@@](C)(O)[C@@H]2CC[C@H]2CN2C[C@@]3(CCCc4cc(Cl)ccc43)COc3ccc(cc32)C(=O)NS1(=O)=O (single isomer, unassigned) [Example 100048] | 0.187 | 551 | 
12 | COC[C@@H](C)N(C)C(=O)C[C@]1(OC)/C=C/C[C@H](C)[C@@H](C)S(=O)(=O)NC(=O)c2ccc3c(c2)N(C[C@@H]2CC[C@H]21)C[C@@]1(CCCc2cc(Cl)ccc21)CO3 [Example 100451, 2-((1S,3′R,6′R,7′S,8′E,11′S,12′R)-6-chloro-7′-methoxy-11′,12′-dimethyl-13′,13′-dioxido-15′-oxo-3,4-dihydro-2H-spiro[naphthalene-1,22′-[20]oxa[13]thia[1,14]diazatetracyclo [14.7.2.0~3,6~.0~19,24~]pentacosa[8,16,18,24]tetraen]-7′-yl)-N-((2R)-1-methoxy-2-propanyl)-N-methylacetamide] | 0.111 | 412 | 
13 | CCO[C@]1(CN2CCN3CCCC[C@@H]3C2)/C=C/CC[C@@H](CC)S(=O)(=O)NC(=O)c2ccc3c(c2)N(C[C@@H]2CC[C@H]21)C[C@@]1(CCCc2cc(Cl)ccc21)CO3 [Example 42, (1S,3′R,6′R,7′R,8′E,12′R)-6-chloro-7′-ethoxy-12′-ethyl-7′-((9aR)-octahydro-2H-pyrido[1,2-a]pyrazin-2-ylmethyl)-3,4-dihydro-2H,15′H-spiro[naphthalene-1,22′-[20]oxa[13]thia[1,14]diazatetracyclo [14.7.2.0~3,6~.0~19,24~]pentacosa[8,16,18,24]tetraen]-15′-one 13′,13′-dioxide] |  |  | IC50 [1, 5]: 0.17 nM; IC50 [2, 6]: 149 nM
14 | C[C@@H]1[C@@H](C)CCC[C@]2(OC[C@@H](N(C)C)CO2)[C@@H]2CC[C@H]2CN2C[C@@]3(CCCc4cc(Cl)ccc43)COc3ccc(cc32)C(=O)NS1(=O)=O [Example 100227] | 0.423 | 191 | 
15 | C[C@H](C(=O)O)[C@@]1(O)/C=C/C[C@H](C)[C@@H](C)S(=O)(=O)NC(=O)c2ccc3c(c2)N(C[C@@H]2CC[C@H]21)C[C@@]1(CCCc2cc(Cl)ccc21)CO3 (single isomer, unassigned) [Example 100121] | 0.056 |  | IC50 [2, 7]: 2530 nM
16 | C[C@@H]1[C@@H](C)C/C=C/[C@@](O)(c2cccnc2)[C@@H]2CC[C@H]2CN2C[C@@]3(CCCc4cc(Cl)ccc43)COc3ccc(cc32)C(=O)NS1(=O)=O [Example 100384, (1S,3′R,6′R,7′S,8′E,11′S,12′R)-6-chloro-7′-hydroxy-11′,12′-dimethyl-7′-(3-pyridinyl)-3,4-dihydro-2H,15′H-spiro[naphthalene-1,22′-[20]oxa[13]thia[1,14]diazatetracyclo [14.7.2.0~3,6~.0~19,24~]pentacosa[8,16,18,24]tetraen]-15′-one 13′,13′-dioxide] | 0.821 | 729 | 
17 | C[C@@H]1[C@@H](C)CCC[C@@](O)(c2nccn2C)[C@@H]2CC[C@H]2CN2C[C@@]3(CCCc4cc(Cl)ccc43)COc3ccc(cc32)C(=O)NS1(=O)=O [Example 100226, (1S,3′R,6′R,7′S,11′S,12′R)-6-chloro-7′-hydroxy-11′,12′-dimethyl-7′-(1-methyl-1H-imidazol-2-yl)-3,4-dihydro-2H,15′H-spiro[naphthalene-1,22′-[20]oxa[13]thia[1,14]diazatetracyclo [14.7.2.0~3,6~.0~19,24~]pentacosa[16,18,24]trien]-15′-one 13′,13′-dioxide] | 1.4 | 849 | 
18 | C=C(F)C[C@@]1(OC)/C=C/C[C@H](C)[C@@H](C)S(=O)(=O)NC(=O)c2ccc3c(c2)N(C[C@@H]2CC[C@H]21)C[C@@]1(CCCc2cc(Cl)ccc21)CO3 [Example 100568, (1S,3′R,6′R,7′R,8′E,11′S,12′R)-6-chloro-7′-(2-fluoro-2-propen-1-yl)-7′-methoxy-11′,12′-dimethyl-3,4-dihydro-2H,15′H-spiro[naphthalene-1,22′-[20]oxa[13]thia[1,14]diazatetracyclo [14.7.2.0~3,6~.0~19,24~]pentacosa[8,16,18,24]tetraen]-15′-one 13′,13′-dioxide] | 0.431 | 1540 | 
19 | CNC(=O)C[C@@]1(O)CCC[C@H](C)[C@@H](C)S(=O)(=O)NC(=O)c2ccc3c(c2)N(C[C@@H]2CC[C@H]21)C[C@@]1(CCCc2cc(Cl)ccc21)CO3 (single isomer, unassigned) [Example 100103] | 0.325 | 778 | 
